Experimental data reported in patent publication US20010044416A1 (priority 2000, published 2001).

Assays:
[1] = system: HBsAg-specific antibodies (anti-HBs); parameters: species or system BALB/c mice; details: mouse, in vivo, po
[2] = system: HBsAg-specific antibodies; parameters: species or system BALB/c mice; details: mouse, in vivo, po
[3] = system: HBsAg-specific antibodies (anti-HBs); parameters: species or system BALB/c mice; details: mouse, in vivo
[4] = in vivo; cited from earlier work

Substance | HBsAg-specific IgG titers, non-CpG ODN versus equivalent dose of CpG ODN [1] | anti-HBs IgG titers in plasma [1] | antibody isotypes (IgG1 Th2-like, IgG2a Th1-like) as indication of Th-bias [1] | HBsAg-specific IgG in plasma [2] | enhancement of immune responses (anti-HBs) with IM delivery [3] | dose causing severe diarrhea [4] [µg]
5′-TCCAGGACTTCTCTCAGGTT-3′ [non-CpG ODN #1982] | no significant difference | much higher levels | predominance of IgG1 | now detected | not | –
Cholera toxin [CT] | – | much higher levels | predominance of IgG1 | – | – | 1 to 5
TCCATGACGTTCCTGACGTT [CpG ODN #1826] | – | much higher levels | equally mixed Th1/Th2 response | now detected | enhancement of immune responses | –
